In ChEMBL document CHEMBL1123438, “Queuine analogues. Their synthesis and inhibition of growth of mouse L5178Y cells in vitro” (1986):

What was measured:
[1] = system: L5178Y; test: Inhibition of L5178Y cell growth at 10 ug/mL.
[2] = molecular target: T1, Queuine tRNA-ribosyltransferase catalytic subunit 1 (Rattus norvegicus) (UniProt Q4QR99); test: Ability to act as substrate of rat liver tRNA-Guanine Transglycosylase.
T1 sequence (whole entry): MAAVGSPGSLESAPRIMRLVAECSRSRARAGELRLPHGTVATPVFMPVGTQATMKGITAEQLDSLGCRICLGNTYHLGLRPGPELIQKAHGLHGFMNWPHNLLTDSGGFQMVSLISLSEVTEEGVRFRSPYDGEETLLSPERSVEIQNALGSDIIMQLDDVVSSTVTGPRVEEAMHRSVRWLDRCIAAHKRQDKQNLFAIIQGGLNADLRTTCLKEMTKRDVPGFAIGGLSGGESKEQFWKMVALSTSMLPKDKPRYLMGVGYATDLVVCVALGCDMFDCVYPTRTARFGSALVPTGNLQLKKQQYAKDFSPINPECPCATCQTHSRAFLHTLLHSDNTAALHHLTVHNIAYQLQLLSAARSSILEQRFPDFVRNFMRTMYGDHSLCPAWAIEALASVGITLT

[3] = system: L5178Y; test: Compound was tested for inhibition of growth of L5178Y cells at concentration of 1 ug/mL; assay type: functional; settings: Mus musculus
[4] = system: L5178Y; test: Inhibition of L5178Y cell growth at 100 ug/mL.

Row | SMILES | Inhibition [1] [%] | Incorporation [2] [%] | inhibition at 1 µg/mL [3] [%] | Inhibition [4] [%]
1 | Nc1nc(O)c2c(CNC(=O)CI)c[nH]c2n1 | 87 | 0 | 49 | 89
2 | Nc1nc(O)c2c(CNC3C=C[C@@H](O)C3O)c[nH]c2n1 (stereo partly specified) | <10 | 120 |  | 23
3 | Nc1nc(O)c2c(CNC3CCCC3)c[nH]c2n1 | 17 | 80 |  | 74
4 | CC(C)C(=O)NCc1c[nH]c2nc(N)nc(O)c12 | 16 | 36 |  | 87
5 | Nc1nc(O)c2c(CNC3C=C[C@H](O)[C@@H]3O)c[nH]c2n1 (stereo partly specified) | <10 | 70 |  | 53
6 | Nc1nc(O)c2c(n1)N=CC2CNCC(=O)O (stereo unspecified) | <10 | 48 |  | 20
7 | Nc1nc(O)c2c(CN3CCCCC3)c[nH]c2n1 | <10 | 65 |  | 36
8 | Nc1nc(O)c2c(CNc3ccccc3O)c[nH]c2n1 | 53 | 76 | 25 | 90
9 | Nc1nc(O)c2c(CNCC(O)CO)c[nH]c2n1 (stereo unspecified) | <10 | 88 |  | 31
10 | CC1(C)OC2C(NCc3c[nH]c4nc(N)nc(S)c34)C=C[C@@H]2O1 (stereo partly specified) | 87 | 123 | 46 | 94
11 | N/C(=N/Cc1c[nH]c2nc(N)nc(O)c12)c1cc(I)c(O)c(I)c1 | 31 | 48 |  | 89
12 | NCc1c[nH]c2nc(N)nc(S)c12 | 36 | 50 | < 10 | 77
13 | Nc1nc(S)c2c(CNC3C=C[C@H](O)C3O)c[nH]c2n1 (stereo partly specified) | 54 | 78 | 12 | 88
14 | Nc1nc(O)c2c(CNC3C=C[C@@H](O)[C@H]3O)c[nH]c2n1 (stereo partly specified) | <10 | 100 |  | 20
15 | Nc1nc(O)c2c(CNCCOCCO)c[nH]c2n1 | <10 | 98 |  | 9
16 | CC1(C)OC2C(NCc3c[nH]c4nc(N)nc(O)c34)C=C[C@H]2O1 (stereo partly specified) | <10 | 100 |  | 21
17 | CCCNCc1c[nH]c2nc(N)nc(O)c12 | <10 | 94 |  | 43
18 | Nc1nc(O)c2c(CNCc3ccc(I)cc3)c[nH]c2n1 | 19 | 98 |  | 77
19 | Nc1nc(O)c2c(CNc3cccc(O)c3)c[nH]c2n1 | 65 | 33 | 12 | 79
20 | CC1(C)OC2C(NCc3c[nH]c4nc(N)nc(O)c34)C=C[C@@H]2O1 (stereo partly specified) | <10 | 55 |  | 34
